Measured values taken from US20230011869A1 (Hoffmann-La Roche Inc., priority 2018, published 2023).
Structures can show the parent of a compound that is named as a salt.

Test system: Acinetobacter baumannii ATCC17978
Assay: Antimicrobial susceptibility testing: 90% growth inhibitory concentration (IC90) determination, Iso-Sensitest broth
Assay type: cell-based
Settings: 90% growth inhibitory concentration, Acinetobacter baumannii ATCC17978, Iso-Sensitest broth, OD 600 nm over 16 h; read-out: ATCC17978 IC90
Outline: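 A. baumannii ATCC17978 grown in Iso-Sensitest broth across 10 compound concentrations at 35±2 °C.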

IC90 [nM]	SMILES
550	COc1ccc(-c2cnc3c(Nc4ccc(C(=O)N5CCN(S(=O)(=O)N(C)C)CC5)c(C)c4)nccn23)cc1F [Example 408, 4-[4-[[3-(3-fluoro-4-methoxyphenyl)imidazo[1,2-a]pyrazin-8-yl]amino]-2-methylbenzoyl]-N,N-dimethylpiperazine-1-sulfonamide]
670	COc1ccc(-c2cnc3c(Nc4ccc(C(=O)N5CCN(CC(C)O)CC5)c(C)c4)nccn23)cc1F (stereo not drawn) [Example 410, [4-[[3-(3-fluoro-4-methoxyphenyl)imidazo[1,2-a]pyrazin-8-yl]amino]-2-methylphenyl]-[4-(2-hydroxypropyl)piperazin-1-yl]methanone]
720	COc1ccc(-c2cnc3c(Nc4ccc(C(=O)N5CCN(CCOCCO)CC5)c(C)c4)nccn23)cc1F [Example 411, [4-[[3-(3-fluoro-4-methoxyphenyl)imidazo[1,2-a]pyrazin-8-yl]amino]-2-methylphenyl]-[4-[2-(2-hydroxyethoxy)ethyl]pipera-zin-1-yl]methanone]
770	COc1ccc(-c2cnc3c(Nc4ccc(C(=O)N5CC6(CNC6)C5)c(C)c4)nccn23)cc1F [Example 413, 2,6-diazaspiro[3.3]heptan-2-yl-[4-[[3-(3-fluoro-4-methoxyphenyl)imidazo[1,2-a]pyrazin-8-yl]amino]-2-methylphenyl]methanone; for-mic acid]
960	COc1ccc(-c2cnc3c(Nc4ccc(C(=O)N5CCC6(CNC6)C5)c(C)c4)nccn23)cc1F [Example 417, 2,6-diazaspiro[3.4]octan-6-yl-[4-[[3-(3-fluoro-4-methoxyphenyl)imidazo[1,2-a]pyrazin-8-yl]amino]-2-methylphenyl]methanone; hy-drochloride]
1000	COc1ccc(-c2cnc3c(Nc4ccc(C(=O)N5CCN[C@H](CO)C5)c(C)c4)nccn23)cc1F [Example 419, [4-[[3-(3-fluoro-4-methoxyphenyl)imidazo[1,2-a]pyrazin-8-yl]amino]-2-methylphenyl]-[(3S)-3-(hydroxymethyl)piperazin-1-yl]methanone]
1100	COc1ccc(-c2cnc3c(Nc4ccc(C(=O)N5CCNC(CO)C5)c(C)c4)nccn23)cc1F (stereo not drawn) [Example 422, [4-[[3-(3-fluoro-4-methoxyphenyl)imidazo[1,2-a]pyrazin-8-yl]amino]-2-methylphenyl]-[3-(hydroxymethyl)piperazin-1-yl]methanone]
1100	COc1ccc(-c2cnc3c(Nc4ccc(C(=O)N5CC[C@@H](N)[C@@H](O)C5)c(C)c4)nccn23)cc1F [Example 423, [(3S,4R)-4-amino-3-hydroxypiperidin-1-yl]-[4-[[3-(3-fluoro-4-methoxyphenyl)imidazo[1,2-a]pyrazin-8-yl]amino]-2-methylphenyl]methanone; hy-drochloride]
1200	COc1ccc(-c2cnc3c(Nc4ccc(C(=O)N5CCNC(C6CC6)C5)c(C)c4)nccn23)cc1F (stereo not drawn) [Example 424, (3-cyclopropylpiperazin-1-yl)-[4-[[3-(3-fluoro-4-methoxyphenyl)imidazo[1,2-a]pyrazin-8-yl]amino]-2-methylphenyl]methanone; hy-drochloride]
1200	COc1ccc(-c2cnc3c(Nc4ccc(C(=O)N5C[C@@H](O)[C@H](O)C5)c(C)c4)nccn23)cc1F [Example 425, [(3R,4R)-3,4-dihydroxypyrrolidin-1-yl]-[4-[[3-(3-fluoro-4-methoxyphenyl)imidazo[1,2-a]pyrazin-8-yl]amino]-2-methylphenyl]methanone]
1200	COc1ccc(-c2cnc3c(Nc4ccc(C(=O)N5CCN(C6CC6)CC5)c(C)c4)nccn23)cc1F [Example 426, (4-cyclopropylpiperazin-1-yl)-[4-[[3-(3-fluoro-4-methoxyphenyl)imidazo[1,2-a]pyrazin-8-yl]amino]-2-methylphenyl]methanone]
1600	COc1ccc(-c2cnc3c(Nc4ccc(C(=O)N5CCC(C(=O)NC6(C(=O)O)CC6)CC5)c(C)c4)nccn23)cc1F [Example 433, 1-[[1-[4-[[3-(3-fluoro-4-methoxyphenyl)imidazo[1,2-a]pyrazin-8-yl]amino]-2-methylbenzoyl]piperidine-4-carbonyl]amino]cyclopropane-1-carboxylic acid]
1800	COc1ccc(-c2cnc3c(Nc4ccc(C(=O)N5CC6(C5)CN(C5CC5)C6)c(C)c4)nccn23)cc1F [Example 434, (6-cyclopropyl-2,6-diazaspiro[3.3]heptan-2-yl)-[4-[[3-(3-fluoro-4-methoxyphenyl)imidazo[1,2-a]pyrazin-8-yl]amino]-2-methylphenyl]methanone]

More lines, now with the values behind:

SMILES	IC90 [nM]
COc1ccc(-c2cnc3c(Nc4ccc(C(=O)NC5CC6(CNC6)C5)c(C)c4)nccn23)cc1F [Example 414, N-(2-azaspiro[3.3]heptan-6-yl)-4-[[3-(3-fluoro-4-methoxyphenyl)imidazo[1,2-a]pyrazin-8-yl]amino]-2-methylbenzamide; hydrochlo-ride]	770
COc1ccc(-c2cnc3c(Nc4ccc(C(=O)N5CCC(C(=O)NCCn6ccnc6)CC5)c(C)c4)nccn23)cc1F [Example 418, 1-[4-[[3-(3-fluoro-4-methoxyphenyl)imidazo[1,2-a]pyrazin-8-yl]amino]-2-methylbenzoyl]-N-(2-imidazol-1-ylethyl)piperidine-4-carboxamide]	1000
COc1ccc(-c2cnc3c(Nc4ccc(C(=O)N5CCC(C(=O)NCc6ccc(C(=O)O)cc6)CC5)c(C)c4)nccn23)cc1F [Example 427, 4-[[[1-[4-[[3-(3-fluoro-4-methoxyphenyl)imidazo[1,2-a]pyrazin-8-yl]amino]-2-methylbenzoyl]piperidine-4-carbonyl]amino]methyl]ben-zoic acid]	1200
Cc1cc(Nc2nccn3c(-c4ccc(O)c(F)c4)cnc23)ccc1C(=O)N1CCC(CN)CC1 [Example 428, [4-(aminomethyl)piperidin-1-yl]-[4-[[3-(3-fluoro-4-hydroxyphenyl)imidazo[1,2-a]pyrazin-8-yl]amino]-2-methylphenyl]methanone]	1300
COc1ccc(-c2cnc3c(Nc4ccc(C(=O)N5CCC(C(=O)N(C)C[C@H](O)[C@@H](O)[C@H](O)[C@H](O)CO)CC5)c(C)c4)nccn23)cc1F [Example 432, 1-[4-[[3-(3-fluoro-4-methoxyphenyl)imidazo[1,2-a]pyrazin-8-yl]amino]-2-methylbenzoyl]-N-methyl-N-[(2S,3R,4R,5R)-2,3,4,5,6-pentahydroxyhexyl]piperidine-4-carboxamide]	1500
COc1ccc(-c2cnc3c(Nc4ccc(C(=O)N5CCC(CNCCC(=O)O)CC5)c(C)c4)nccn23)cc1 [Example 435, 3-[[1-[4-[[3-(4-methoxyphenyl)imidazo[1,2-a]pyrazin-8-yl]amino]-2-methylbenzoyl]piperidin-4-yl]methylamino]propanoic acid]	3200

Same assay, conditions: Acinetobacter baumannii, ATCC17978, 16 h, read-out: ATCC17978 IC90, 90% growth inhibitory concentration, Acinetobacter baumannii ATCC17978, Iso-Sensitest broth, OD 600 nm over 16 h

SMILES	IC90 [nM]
COc1ccc(-c2cnc3c(Nc4ccc(C(=O)N5CCC(C(=O)N(C)CCCN)CC5)c(C)c4)nccn23)cc1F [Example 406, N-(3-aminopropyl)-1-[4-[[3-(3-fluoro-4-methoxyphenyl)imidazo[1,2-a]pyrazin-8-yl]amino]-2-methylbenzoyl]-N-methylpiperidine-4-carboxamide; hydrochloride]	530
COc1ccc(-c2cnc3c(Nc4ccc(C(=O)N5CCC(C(=O)NC6(C(N)=O)CNC6)CC5)c(C)c4)nccn23)cc1F [Example 407, N-(3-carbamoylazetidin-3-yl)-1-[4-[[3-(3-fluoro-4-methoxyphenyl)imidazo[1,2-a]pyrazin-8-yl]amino]-2-methylbenzoyl]piperidine-4-carboxamide; 2,2,2-trifluoroacetic acid]	540
Cc1cc(Nc2nccn3c(-c4ccc(OC(F)F)cc4)cnc23)ccc1C(=O)N1CCC(C(=O)N(C)CCO)CC1 [Example 409, 1-[4-[[3-[4-(difluoromethoxy)phenyl]imi-dazo[1,2-a]pyrazin-8-yl]amino]-2-methylbenzoyl]-N-(2-hydroxyethyl)-N-methylpiperidine-4-carboxamide]	580
COc1ccc(-c2cnc3c(Nc4ccc(C(=O)N5CCC(C(=O)NCCN6CCNCC6=O)CC5)c(C)c4)nccn23)cc1F [Example 412, 1-[4-[[3-(3-fluoro-4-methoxyphenyl)imidazo[1,2-a]pyrazin-8-yl]amino]-2-methylbenzoyl]-N-[2-(2-oxopiperazin-1-yl)ethyl]piperidine-4-carboxamide; 2,2,2-trifluoroacetic acid]	760
COc1ccc(-c2cnc3c(Nc4ccc(C(=O)N5CCNC6(CC6)C5)c(C)c4)nccn23)cc1F [Example 416, 4,7-diazaspiro[2.5]octan-7-yl-[4-[[3-(3-fluoro-4-methoxyphenyl)imidazo[1,2-a]pyrazin-8-yl]amino]-2-methylphenyl]methanone; 2,2,2-trifluoroacetic acid]	800
COc1ccc(-c2cnc3c(Nc4ccc(C(=O)N5CCC(CNC(CN)C(=O)O)CC5)c(C)c4)nccn23)cc1 (stereo not drawn) [Example 420, 3-amino-2-[[1-[4-[[3-(4-methoxyphenyl)imidazo[1,2-a]pyrazin-8-yl]amino]-2-methylbenzoyl]piperidin-4-yl]methylamino]propanoic acid; formic acid]	1100
COc1ccc(-c2cnc3c(Nc4ccc(C(=O)N5CC6(CCN6)C5)c(C)c4)nccn23)cc1F [Example 421, 1,6-diazaspiro[3.3]heptan-6-yl-[4-[[3-(3-fluoro-4-methoxyphenyl)imidazo[1,2-a]pyrazin-8-yl]amino]-2-methylphenyl]methanone; 2,2,2-trifluoroacetic acid]	1100
COc1ccc(-c2cnc3c(Nc4ccc(C(=O)N5CCC(CNCC(=O)O)CC5)c(C)c4)nccn23)cc1 [Example 431, formic acid; 2-[[1-[4-[[3-(4-methoxyphenyl)imidazo[1,2-a]pyrazin-8-yl]amino]-2-methylbenzoyl]piperidin-4-yl]methylamino]acetic acid]	1500
